Where “and” joins values, the source holds several entries; their conditions need not be identical. Equal values may be shown once. Inconclusive results and toxic doses are left out. Cut-off read from the data, not from the text of the source: active = T/C of 150% or more; inactive = T/C below 125%.
System: L1210 leukemia ip in BDF1 mice, survival T/C
Experiment: NCI In Vivo Anticancer Drug Screen. Data for tumor model L1210 Leukemia (intraperitoneal) in B6D2F1 (BDF1) mice
Settings: endpoint: mean survival time, higher = longer survival
How it was run: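 Ratio derived from survival: compound-dosed mice over vehicle-dosed mice, all bearing a transplantable tumor.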

[1] = dose: 50.0 mg/kg/injection, schedule: Q01DX001 (ip), vehicle: saline
[2] = dose: 100.0 mg/kg/injection, schedule: Q01DX001 (ip), vehicle: saline
[3] = dose: 200.0 mg/kg/injection, schedule: Q01DX001 (ip), vehicle: saline
[4] = dose: 400.0 mg/kg/injection, schedule: Q01DX001 (ip), vehicle: saline
[5] = dose: 100.0 mg/kg/injection, schedule: Q01DX001 (ip), vehicle: carboxymethylcellulose (CMC)
[6] = dose: 200.0 mg/kg/injection, schedule: Q01DX001 (ip), vehicle: carboxymethylcellulose (CMC)
[7] = dose: 400.0 mg/kg/injection, schedule: Q01DX001 (ip), vehicle: carboxymethylcellulose (CMC)
[8] = dose: 100.0 mg/kg/injection, schedule: Q01DX009 (ip), vehicle: saline with Tween-80
[9] = dose: 100.0 mg/kg/injection, schedule: Q04DX003 (ip), vehicle: saline with Tween-80
[10] = dose: 200.0 mg/kg/injection, schedule: Q01DX009 (ip), vehicle: saline with Tween-80
[11] = dose: 200.0 mg/kg/injection, schedule: Q04DX003 (ip), vehicle: saline with Tween-80
[12] = dose: 400.0 mg/kg/injection, schedule: Q04DX003 (ip), vehicle: saline with Tween-80
[13] = dose: 25.0 mg/kg/injection, schedule: Q04DX003 (ip), vehicle: Klucel (hydroxypropylcellulose) (HPC)
[14] = dose: 50.0 mg/kg/injection, schedule: Q04DX003 (ip), vehicle: Klucel (hydroxypropylcellulose) (HPC)
[15] = dose: 100.0 mg/kg/injection, schedule: Q04DX003 (ip), vehicle: Klucel (hydroxypropylcellulose) (HPC)
[16] = dose: 50.0 mg/kg/injection, schedule: Q01DX009 (ip), vehicle: Klucel (hydroxypropylcellulose) (HPC)
[17] = dose: 100.0 mg/kg/injection, schedule: Q01DX009 (ip), vehicle: Klucel (hydroxypropylcellulose) (HPC)
[18] = dose: 200.0 mg/kg/injection, schedule: Q01DX009 (ip), vehicle: Klucel (hydroxypropylcellulose) (HPC)
[19] = dose: 12.5 mg/kg/injection, schedule: Q01DX009 (ip), vehicle: Klucel (hydroxypropylcellulose) (HPC)
[20] = dose: 100.0 mg/kg/injection, schedule: Q04DX002 (ip), vehicle: Klucel (hydroxypropylcellulose) (HPC)
[21] = dose: 200.0 mg/kg/injection, schedule: Q04DX002 (ip), vehicle: Klucel (hydroxypropylcellulose) (HPC)
[22] = dose: 400.0 mg/kg/injection, schedule: Q04DX002 (ip), vehicle: Klucel (hydroxypropylcellulose) (HPC)
[23] = dose: 200.0 mg/kg/injection, schedule: Q04DX003 (ip), vehicle: Klucel (hydroxypropylcellulose) (HPC)
[24] = dose: 400.0 mg/kg/injection, schedule: Q04DX003 (ip), vehicle: Klucel (hydroxypropylcellulose) (HPC)

Measured: T/C

Cc1nc2ccccc2[nH]c1=O
inactive: dose: 75.0 mg/kg/injection, schedule: Q04DX003 (ip), vehicle: saline 96 % of control | dose: 100.0 mg/kg/injection, schedule: Q01DX001 (ip), vehicle: other 97 % of control | dose: 150.0 mg/kg/injection, schedule: Q04DX003 (ip), vehicle: saline 100 % of control | dose: 200.0 mg/kg/injection, schedule: Q01DX001 (ip), vehicle: other 100 % of control | dose: 300.0 mg/kg/injection, schedule: Q04DX003 (ip), vehicle: saline 96 % of control | dose: 400.0 mg/kg/injection, schedule: Q01DX001 (ip), vehicle: other 93 % of control

O=C(O)C1CO1 (configuration not stated)
inactive: dose: 100.0 mg/kg/injection, schedule: Q01DX001 (ip), vehicle: acetone 102 % of control | dose: 200.0 mg/kg/injection, schedule: Q01DX001 (ip), vehicle: acetone 98 % of control | dose: 400.0 mg/kg/injection, schedule: Q01DX001 (ip), vehicle: acetone 101 % of control

CCCOB(OCCC)OCCC
inactive: [1] 95 % of control | [2] 98 % of control | [3] 98 % of control | [4] 106 % of control

O=C1c2ccccc2C(=O)C1N=Nc1ccccc1
inactive: [1] 102 % of control | [2] 100 % of control | [3] 94 % of control | [4] 96 % of control

Oc1cccc2ccc(N/N=C/c3ccc4cccnc4c3O)nc12
inactive: [5] 93 % of control | [6] 102 % of control | [7] 93 % of control

Nc1cc(Cl)c2ncn(C3OC(CO)C(O)C3O)c2n1 (configuration not stated)
inactive: [2] 98 % of control | dose: 100.0 mg/kg/injection, schedule: Q01DX005 (ip), vehicle: saline 110 % of control | [3] 101 % of control | dose: 200.0 mg/kg/injection, schedule: Q01DX005 (ip), vehicle: saline 115 % of control | [4] 114 % of control

CCOC(C)(NCc1ccccc1)OCC
inactive: dose: 25.0 mg/kg/injection, schedule: Q04DX002 (ip), vehicle: Klucel (hydroxypropylcellulose) (HPC) 86 % of control | dose: 50.0 mg/kg/injection, schedule: Q04DX002 (ip), vehicle: Klucel (hydroxypropylcellulose) (HPC) 111 % of control

Nc1c2ccccc2cc2ccccc12
inactive: dose: 50.0 mg/kg/injection, schedule: Q01DX009 (ip), vehicle: saline with Tween-80 91 % of control | [8] 97 % of control | [9] 96 % of control and 112 % of control | [10] 110 % of control | [11] 91 % of control and 97 % of control | [12] 88 % of control

Cc1cc(C)n(-c2nn3nnnc3c3ccccc23)n1
inactive: dose: 62.5 mg/kg/injection, schedule: Q04DX003 (ip), vehicle: saline 101 % of control | dose: 125.0 mg/kg/injection, schedule: Q04DX003 (ip), vehicle: saline 95 % of control | dose: 250.0 mg/kg/injection, schedule: Q04DX003 (ip), vehicle: saline 93 % of control

CN(C)c1ccc(N=Nc2ccc(C(C)(C)C)cc2)cc1
inactive: [8] 97 % of control | [9] 95 % of control | [10] 94 % of control | [11] 86 % of control | dose: 400.0 mg/kg/injection, schedule: Q01DX009 (ip), vehicle: saline with Tween-80 89 % of control | [12] 96 % of control

c1ccc(C2CO2)cc1 (configuration not stated)
inactive: [13] 97 % of control | dose: 50.0 mg/kg/injection, schedule: Q01DX001 (ip), vehicle: carboxymethylcellulose (CMC) 95 % of control | [14] 90 % of control | [5] 101 % of control | [15] 98 % of control | [6] 97 % of control | [7] 97 % of control

Nc1cc(Cl)nc(-c2ccccc2)n1
inactive: [16] 98 % of control | [17] 98 % of control | [18] 102 % of control

N#Cc1nc2c(nc1C#N)-c1ccccc1C2=O
inactive: dose: 6.25 mg/kg/injection, schedule: Q01DX009 (ip), vehicle: Klucel (hydroxypropylcellulose) (HPC) 99 % of control | [19] 94 % of control | dose: 12.5 mg/kg/injection, schedule: Q04DX003 (ip), vehicle: Klucel (hydroxypropylcellulose) (HPC) 104 % of control | [13] 112 % of control

N#CC1c2ccccc2-c2ccccc2N1C(=O)c1ccccc1 (configuration not stated)
inactive: [20] 93 % of control | [21] 96 % of control | [22] 107 % of control

C[N+]1(C)C2CCC1CC(=NO)C2
inactive: dose: 75.0 mg/kg/injection, schedule: Q01DX001 (ip), vehicle: saline 104 % of control

C[Si](C)(C)OSc1ccccc1[N+](=O)[O-]
inactive: [19] 93 % of control | dose: 25.0 mg/kg/injection, schedule: Q01DX009 (ip), vehicle: Klucel (hydroxypropylcellulose) (HPC) 92 % of control | [16] 93 % of control | [17] 104 % of control | [18] 95 % of control | dose: 400.0 mg/kg/injection, schedule: Q01DX009 (ip), vehicle: Klucel (hydroxypropylcellulose) (HPC) 97 % of control

CCCP(CCC)c1ccccc1
inactive: dose: 100.0 mg/kg/injection, schedule: Q01DX009 (sc), vehicle: olive oil, sesame oil, peanut oil 96 % of control | dose: 100.0 mg/kg/injection, schedule: Q04DX003 (sc), vehicle: olive oil, sesame oil, peanut oil 93 % of control | dose: 200.0 mg/kg/injection, schedule: Q01DX009 (sc), vehicle: olive oil, sesame oil, peanut oil 113 % of control | dose: 200.0 mg/kg/injection, schedule: Q04DX003 (sc), vehicle: olive oil, sesame oil, peanut oil 95 % of control | dose: 400.0 mg/kg/injection, schedule: Q01DX009 (sc), vehicle: olive oil, sesame oil, peanut oil 100 % of control | dose: 400.0 mg/kg/injection, schedule: Q04DX003 (sc), vehicle: olive oil, sesame oil, peanut oil 91 % of control

O=C(O)c1ccc(NC(C[N+](=O)[O-])C(F)(F)C(F)(F)C(F)(F)F)cc1 (configuration not stated)
inactive: [13] 103 % of control | [14] 93 % of control | dose: 100.0 mg/kg/injection, schedule: Q01DX009 (ip), vehicle: saline sonified 95 % of control | [15] 103 % of control and 115 % of control | dose: 200.0 mg/kg/injection, schedule: Q01DX009 (ip), vehicle: saline sonified 86 % of control | [23] 102 % of control | dose: 400.0 mg/kg/injection, schedule: Q01DX009 (ip), vehicle: saline sonified 88 % of control | [24] 100 % of control

C=CC(=O)O (tested in a mixture with another compound)
inactive: dose: 100.0 mg/kg/injection, schedule: Q01DX Z (ip), vehicle: saline 91 % of control

CC(=O)OC1CCC2(C)C(CCC3(C)C2CC=C2C4C(C)C(C)CCC4(C)CCC23C)C1(C)C (configuration not stated)
inactive: [15] 91 % of control | [23] 88 % of control | [24] 90 % of control

COc1ccc(-c2ccc(OC)c(OC)c2OC)c(N)c1
inactive: dose: 65.0 mg/kg/injection, schedule: Q01DX Z (ip), vehicle: carboxymethylcellulose (CMC) 93 % of control and 121 % of control | dose: 125.0 mg/kg/injection, schedule: Q01DX Z (ip), vehicle: carboxymethylcellulose (CMC) 94 % of control and 100 % of control | dose: 250.0 mg/kg/injection, schedule: Q01DX Z (ip), vehicle: carboxymethylcellulose (CMC) 93 % of control and 86 % of control | dose: 500.0 mg/kg/injection, schedule: Q01DX Z (ip), vehicle: carboxymethylcellulose (CMC) 112 % of control

CC(=O)C(C(c1ccccc1)N1CCOCC1)N1CCOCC1 (configuration not stated)
inactive: [20] 100 % of control | [9] 97 % of control | [21] 110 % of control | [11] 96 % of control | [22] 100 % of control | [12] 93 % of control

Cc1ccc(Cl)c(I)c1
inactive: dose: 100.0 mg/kg/injection, schedule: Q04DX002 (ip), vehicle: saline 103 % of control | dose: 200.0 mg/kg/injection, schedule: Q04DX002 (ip), vehicle: saline 103 % of control | dose: 400.0 mg/kg/injection, schedule: Q04DX002 (ip), vehicle: saline 95 % of control

From PubChem BioAssay AID248 (DTP/NCI, 2004)
